Laboratory results: ChEMBL document CHEMBL3132769, “Fragment growing to retain or alter the selectivity of anchored kinase hinge-binding fragments” (Medchemcomm, 2014)

Tests used:
[1] = biological target: Serine/threonine-protein kinase MARK1 (Homo sapiens) (UniProt Q9P0L2); assay: Inhibition of human full length MARK1 expressed in baculovirus assessed as substrate phosphorylation using fluorescence-labelled peptides as substrate at 0.2 uM after 90 mins by microfluidic peptide phosphorylation assay
Sequence of Serine/threonine-protein kinase MARK1 (Homo sapiens) (Q9P0L2 whole entry, looked up, the tested form may be a part): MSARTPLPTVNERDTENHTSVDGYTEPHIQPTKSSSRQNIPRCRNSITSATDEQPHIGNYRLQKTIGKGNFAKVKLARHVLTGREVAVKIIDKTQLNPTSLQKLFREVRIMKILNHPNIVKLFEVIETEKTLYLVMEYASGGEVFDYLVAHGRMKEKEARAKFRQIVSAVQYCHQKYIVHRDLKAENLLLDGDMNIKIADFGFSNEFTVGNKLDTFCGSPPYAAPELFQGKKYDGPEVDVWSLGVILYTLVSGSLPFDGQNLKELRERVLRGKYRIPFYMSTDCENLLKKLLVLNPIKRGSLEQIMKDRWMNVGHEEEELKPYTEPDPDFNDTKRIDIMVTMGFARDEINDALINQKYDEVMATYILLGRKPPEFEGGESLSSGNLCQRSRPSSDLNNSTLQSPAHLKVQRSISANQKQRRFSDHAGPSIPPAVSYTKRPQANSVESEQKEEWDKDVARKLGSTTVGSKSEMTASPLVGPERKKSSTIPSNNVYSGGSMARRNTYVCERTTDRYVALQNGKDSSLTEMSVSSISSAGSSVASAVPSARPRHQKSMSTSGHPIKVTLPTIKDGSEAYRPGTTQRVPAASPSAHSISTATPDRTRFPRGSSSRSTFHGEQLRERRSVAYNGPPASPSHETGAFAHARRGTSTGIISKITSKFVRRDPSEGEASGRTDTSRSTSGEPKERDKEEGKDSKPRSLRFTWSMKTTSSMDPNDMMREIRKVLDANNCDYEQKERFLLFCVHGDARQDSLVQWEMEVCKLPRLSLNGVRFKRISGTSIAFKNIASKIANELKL

[2] = biological target: Protein kinase C delta type (Homo sapiens) (UniProt Q05655); assay: Inhibition of human truncated PKC delta expressed in baculovirus assessed as substrate phosphorylation using fluorescence-labelled peptides as substrate at 0.2 uM after 90 mins by microfluidic peptide phosphorylation assay
Sequence of Protein kinase C delta type (Homo sapiens) (Q05655 whole entry, looked up, the tested form may be a part): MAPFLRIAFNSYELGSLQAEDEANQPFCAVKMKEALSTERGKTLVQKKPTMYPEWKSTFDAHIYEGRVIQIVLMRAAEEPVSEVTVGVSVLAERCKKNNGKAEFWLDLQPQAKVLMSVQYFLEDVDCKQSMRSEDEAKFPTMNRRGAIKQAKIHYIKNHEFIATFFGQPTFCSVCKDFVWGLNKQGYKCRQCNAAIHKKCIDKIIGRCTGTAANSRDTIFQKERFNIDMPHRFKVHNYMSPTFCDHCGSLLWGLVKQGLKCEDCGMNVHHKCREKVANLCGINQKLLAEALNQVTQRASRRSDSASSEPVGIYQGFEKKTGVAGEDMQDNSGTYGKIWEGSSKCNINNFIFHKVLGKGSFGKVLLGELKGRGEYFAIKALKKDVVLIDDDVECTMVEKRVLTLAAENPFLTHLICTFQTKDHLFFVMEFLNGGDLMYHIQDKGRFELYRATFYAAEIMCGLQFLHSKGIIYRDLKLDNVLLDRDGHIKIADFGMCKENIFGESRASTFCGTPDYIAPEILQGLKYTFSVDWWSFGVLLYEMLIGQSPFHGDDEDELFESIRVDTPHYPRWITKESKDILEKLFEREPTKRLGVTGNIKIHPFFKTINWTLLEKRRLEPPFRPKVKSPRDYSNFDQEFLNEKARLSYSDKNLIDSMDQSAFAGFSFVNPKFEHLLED

[3] = biological target: Serine/threonine-protein kinase Chk2 (Homo sapiens) (UniProt O96017); assay: Inhibition of human full length CHK2 expressed in baculovirus assessed as substrate phosphorylation using fluorescence-labelled peptides as substrate at 420 uM after 90 mins by microfluidic peptide phosphorylation assay
Sequence of Serine/threonine-protein kinase Chk2 (Homo sapiens) (O96017 whole entry): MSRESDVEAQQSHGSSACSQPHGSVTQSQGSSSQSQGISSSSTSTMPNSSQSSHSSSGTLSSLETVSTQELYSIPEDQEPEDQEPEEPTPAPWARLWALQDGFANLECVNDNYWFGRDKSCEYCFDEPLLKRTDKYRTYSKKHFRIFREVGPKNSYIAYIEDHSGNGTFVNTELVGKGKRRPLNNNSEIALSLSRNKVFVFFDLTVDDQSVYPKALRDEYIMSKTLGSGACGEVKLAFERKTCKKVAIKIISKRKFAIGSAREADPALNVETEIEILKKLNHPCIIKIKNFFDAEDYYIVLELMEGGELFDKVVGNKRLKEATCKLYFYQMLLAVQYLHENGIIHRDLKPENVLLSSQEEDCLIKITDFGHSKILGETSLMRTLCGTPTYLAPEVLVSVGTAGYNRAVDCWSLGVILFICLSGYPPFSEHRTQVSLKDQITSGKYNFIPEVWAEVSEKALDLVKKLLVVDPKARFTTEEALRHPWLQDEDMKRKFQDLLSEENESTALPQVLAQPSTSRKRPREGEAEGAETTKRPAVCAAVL

[4] = biological target: T1, cGMP-dependent protein kinase 1 (Homo sapiens) (UniProt Q13976); assay: Inhibition of human full length PKG-1a expressed in baculovirus assessed as substrate phosphorylation using fluorescence-labelled peptides as substrate at 95 uM after 90 mins by microfluidic peptide phosphorylation assay
T1 sequence (whole entry): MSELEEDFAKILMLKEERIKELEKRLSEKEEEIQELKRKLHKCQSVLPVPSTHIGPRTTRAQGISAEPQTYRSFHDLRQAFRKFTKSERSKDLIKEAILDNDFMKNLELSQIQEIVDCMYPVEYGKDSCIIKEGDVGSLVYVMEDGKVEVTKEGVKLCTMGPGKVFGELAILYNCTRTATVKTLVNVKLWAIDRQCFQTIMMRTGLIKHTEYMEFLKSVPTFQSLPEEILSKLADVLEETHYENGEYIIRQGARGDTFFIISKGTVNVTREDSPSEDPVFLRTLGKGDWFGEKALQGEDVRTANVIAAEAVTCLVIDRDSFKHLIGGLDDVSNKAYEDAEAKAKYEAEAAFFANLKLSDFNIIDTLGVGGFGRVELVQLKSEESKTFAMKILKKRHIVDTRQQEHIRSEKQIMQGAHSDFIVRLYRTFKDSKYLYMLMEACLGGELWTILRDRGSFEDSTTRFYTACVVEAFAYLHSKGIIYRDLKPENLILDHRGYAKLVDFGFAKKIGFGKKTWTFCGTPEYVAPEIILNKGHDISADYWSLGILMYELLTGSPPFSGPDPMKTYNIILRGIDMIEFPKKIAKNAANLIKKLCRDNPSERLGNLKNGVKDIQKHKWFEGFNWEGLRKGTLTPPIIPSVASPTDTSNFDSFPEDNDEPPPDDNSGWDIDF

[5] = biological target: Protein kinase C beta type (Homo sapiens) (UniProt P05771); assay: Inhibition of human full length PKC beta2 expressed in baculovirus assessed as substrate phosphorylation using fluorescence-labelled peptides as substrate at 1000 uM after 90 mins by microfluidic peptide phosphorylation assay
Sequence of Protein kinase C beta type (Homo sapiens) (P05771 2-671 limits assumed): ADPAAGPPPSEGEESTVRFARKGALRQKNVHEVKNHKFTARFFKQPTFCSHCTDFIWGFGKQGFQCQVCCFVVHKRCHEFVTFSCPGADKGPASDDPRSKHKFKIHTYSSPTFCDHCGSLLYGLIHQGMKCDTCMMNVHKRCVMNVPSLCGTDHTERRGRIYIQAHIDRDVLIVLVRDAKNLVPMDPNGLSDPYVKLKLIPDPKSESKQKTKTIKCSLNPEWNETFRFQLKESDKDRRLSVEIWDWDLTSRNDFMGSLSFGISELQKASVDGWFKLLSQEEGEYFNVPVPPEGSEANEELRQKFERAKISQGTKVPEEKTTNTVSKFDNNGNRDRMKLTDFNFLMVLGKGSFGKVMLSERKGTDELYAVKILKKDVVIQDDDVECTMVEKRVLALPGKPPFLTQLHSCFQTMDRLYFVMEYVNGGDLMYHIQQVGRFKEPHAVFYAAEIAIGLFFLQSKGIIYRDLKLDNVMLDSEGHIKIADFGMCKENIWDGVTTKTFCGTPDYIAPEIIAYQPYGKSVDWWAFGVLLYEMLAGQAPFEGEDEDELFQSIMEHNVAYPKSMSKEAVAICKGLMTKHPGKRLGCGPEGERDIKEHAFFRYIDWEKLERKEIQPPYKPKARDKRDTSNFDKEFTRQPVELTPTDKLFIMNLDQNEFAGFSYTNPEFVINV

[6] = biological target: Protein kinase C delta type (Homo sapiens) (UniProt Q05655); assay: Inhibition of human truncated PKC delta expressed in baculovirus assessed as substrate phosphorylation using fluorescence-labelled peptides as substrate at 2 uM after 90 mins by microfluidic peptide phosphorylation assay
[7] = biological target: Protein kinase C theta type (Homo sapiens) (UniProt Q04759); assay: Inhibition of human truncated PKC theta expressed in baculovirus assessed as substrate phosphorylation using fluorescence-labelled peptides as substrate at 2 uM after 90 mins by microfluidic peptide phosphorylation assay
Sequence of Protein kinase C theta type (Homo sapiens) (Q04759 whole entry, looked up, the tested form may be a part): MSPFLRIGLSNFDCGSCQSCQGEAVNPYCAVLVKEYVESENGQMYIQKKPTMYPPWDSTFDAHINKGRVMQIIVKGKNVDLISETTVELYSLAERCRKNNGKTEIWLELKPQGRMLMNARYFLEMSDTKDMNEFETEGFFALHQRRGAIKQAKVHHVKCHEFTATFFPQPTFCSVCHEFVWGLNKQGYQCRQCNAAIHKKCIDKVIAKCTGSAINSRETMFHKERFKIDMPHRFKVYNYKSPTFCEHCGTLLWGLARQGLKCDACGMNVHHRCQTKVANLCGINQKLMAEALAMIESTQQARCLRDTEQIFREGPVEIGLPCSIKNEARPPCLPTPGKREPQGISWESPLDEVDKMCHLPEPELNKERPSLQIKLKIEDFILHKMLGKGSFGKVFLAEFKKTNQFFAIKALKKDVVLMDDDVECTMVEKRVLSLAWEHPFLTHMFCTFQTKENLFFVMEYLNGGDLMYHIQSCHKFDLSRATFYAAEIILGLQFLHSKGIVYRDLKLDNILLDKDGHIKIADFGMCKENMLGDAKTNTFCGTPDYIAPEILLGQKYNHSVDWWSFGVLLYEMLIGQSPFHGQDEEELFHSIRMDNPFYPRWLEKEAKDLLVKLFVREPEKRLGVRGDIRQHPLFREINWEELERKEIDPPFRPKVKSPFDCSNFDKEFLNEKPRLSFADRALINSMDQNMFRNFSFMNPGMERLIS

[8] = system: Tyrosine-protein kinase ABL1 (Homo sapiens), P00519 [H396P]; assay: Inhibition of human truncated ABL H396P mutant expressed in baculovirus assessed as substrate phosphorylation using fluorescence-labelled peptides as substrate at […] after 90 mins by microfluidic peptide phosphorylation assay
[9] = biological target: T2, Serine/threonine-protein kinase D1 (Homo sapiens) (UniProt Q15139); assay: Inhibition of human full length PKD1 expressed in baculovirus assessed as substrate phosphorylation using fluorescence-labelled peptides as substrate at 8 uM after 90 mins by microfluidic peptide phosphorylation assay
T2 sequence (whole entry): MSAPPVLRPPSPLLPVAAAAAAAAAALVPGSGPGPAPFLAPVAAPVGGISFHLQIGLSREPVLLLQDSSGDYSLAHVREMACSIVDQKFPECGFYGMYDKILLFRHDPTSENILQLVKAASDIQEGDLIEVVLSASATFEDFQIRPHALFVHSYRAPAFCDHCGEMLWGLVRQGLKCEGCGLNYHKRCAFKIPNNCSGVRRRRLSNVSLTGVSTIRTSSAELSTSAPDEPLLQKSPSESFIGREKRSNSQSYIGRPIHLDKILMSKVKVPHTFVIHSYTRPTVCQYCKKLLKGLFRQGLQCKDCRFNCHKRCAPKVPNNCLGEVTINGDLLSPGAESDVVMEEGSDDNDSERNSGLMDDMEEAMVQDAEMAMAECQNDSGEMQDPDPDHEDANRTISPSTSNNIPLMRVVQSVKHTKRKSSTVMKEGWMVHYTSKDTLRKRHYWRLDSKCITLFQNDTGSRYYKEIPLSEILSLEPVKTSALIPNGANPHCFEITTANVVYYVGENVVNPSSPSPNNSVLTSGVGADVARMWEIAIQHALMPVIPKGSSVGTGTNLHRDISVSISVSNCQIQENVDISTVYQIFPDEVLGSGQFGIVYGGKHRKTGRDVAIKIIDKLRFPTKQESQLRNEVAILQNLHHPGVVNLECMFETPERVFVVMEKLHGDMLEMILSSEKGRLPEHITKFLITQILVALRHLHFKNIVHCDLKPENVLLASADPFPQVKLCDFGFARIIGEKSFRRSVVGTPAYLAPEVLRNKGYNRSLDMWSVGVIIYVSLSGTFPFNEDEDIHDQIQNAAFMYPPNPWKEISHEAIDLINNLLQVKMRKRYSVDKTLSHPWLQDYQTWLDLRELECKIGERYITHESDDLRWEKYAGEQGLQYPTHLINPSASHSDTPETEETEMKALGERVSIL

## Clc1ccc(C2(c3ccc(-c4ncnc5[nH]cnc45)cc3)CCNCC2)cc1
[1]
  inhibition: 51%
[2]
  inhibition: 37.5%

## c1nc(N2CCOCC2)c2nc[nH]c2n1
[3]
  inhibition: 85%

## NCCc1ccc(-c2ncnc3[nH]cnc23)cc1
[4]
  inhibition: 92%

## c1cnc2[nH]ccc2c1
[5]
  inhibition: 21%

## NC1CCN(c2ncnc3[nH]ccc23)CC1
[6]
  inhibition: 33%
[7]
  inhibition: 13%

## COC(=O)c1cnc(Nc2cnc(C#N)cn2)cc1NCC1CCNCC1
[8]
  inhibition: 1%

## NCC1CCN(c2ncnc3[nH]ccc23)CC1
[9]
  inhibition: 75.5%
